In US10167262B2, “Herbicidal substituted 3-arylpyrazoles” (FMC CORPORATION, priority 2014, dated 2019):

Assays:
Format in all cases: in vivo
rice (Oryza sativa) = assay: Test B flooded paddy test, plant response rating 0-100; conditions: Flood, 250 g ai/ha; scale 0 to 100 (0 no effect, 100 complete control); 13 to 15 days
Text: (§1) At time of treatment, test pots were flooded to 3 cm above the soil surface, treated by application of test compounds directly to the paddy water, and then maintained at that water depth for the duration of the test. Treated plants and controls were maintained in a greenhouse for 13 to 15 days, after which time all species were compared to controls and visually evaluated. […] A dash (-) response means no test result.

[1] = system: ducksalad (Heteranthera limosa); assay: as above; conditions: Flood, 250 g ai/ha; scale 0 to 100 (0 no effect, 100 complete control); 13 to 15 days
Text: as §1

[2] = system: barnyardgrass (Echinochloa crus-galli); assay: as above; conditions: Flood, 250 g ai/ha; scale 0 to 100 (0 no effect, 100 complete control); 13 to 15 days
Text: as §1

[3] = system: sedge, umbrella (small-flower umbrella sedge, Cyperus difformis); assay: as above; conditions: Flood, 250 g ai/ha; scale 0 to 100 (0 no effect, 100 complete control); 13 to 15 days
Text: as §1

[4] = system: wheat (Triticum aestivum); assay: Test A pre-/postemergence greenhouse herbicide test, visual injury rating 0-100
Summary of the method: (§2)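 Visual injury versus untreated controls, scored about 10 days after treatment on a 0 to 100 scale (0 = no effect, 100 = complete control). Applications were preemergence directed soil spray plus postemergence spray at one- to two-leaf stage, 2 to 10 cm plants.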

[5] = system: pigweed (Amaranthus retroflexus); assay: as above
Summary of the method: as §2

corn (Zea mays) = assay: as above
Summary of the method: as §2

[6] = system: morningglory (Ipomoea spp.); assay: as above
Summary of the method: as §2

[7] = system: large (Lg) crabgrass (Digitaria sanguinalis); assay: as above
Summary of the method: as §2

[8] = system: giant foxtail (Setaria faberii); assay: as above
Summary of the method: as §2

[9] = system: velvetleaf (Abutilon theophrasti); assay: as above
Summary of the method: as §2

[10] = system: barnyardgrass (Echinochloa crus-galli); assay: as above
Summary of the method: as §2

| Structure (SMILES) | Plant response rating, Rice (rice (Oryza sativa)) | Plant response rating, Ducksalad [1] | Plant response rating, Barnyardgrass [2] | Plant response rating, Sedge, Umbrella [3] | Plant response rating (0 to 100 scale), Wheat ([4]; Postemergence, 125 g ai/ha) | Plant response rating (0 to 100 scale), Wheat ([4]; Postemergence, 500 g ai/ha) | Wheat plant response rating (0 = no effect, 100 = complete control) ([4]; Preemergence, 125 g ai/ha) | Plant response rating (0 to 100 scale), Wheat ([4]; Preemergence, 500 g ai/ha) | Plant response rating (0 to 100 scale), Pigweed ([5]; Postemergence, 125 g ai/ha) | Plant response rating (0 to 100 scale), Pigweed ([5]; Postemergence, 500 g ai/ha) | Pigweed plant response rating (0 = no effect, 100 = complete control) ([5]; Preemergence, 125 g ai/ha) | Plant response rating (0 to 100 scale), Pigweed ([5]; Preemergence, 500 g ai/ha) | Corn plant response rating (0 = no effect, 100 = complete control) (corn (Zea mays); Preemergence, 125 g ai/ha) | Plant response rating (0 to 100 scale), Corn (corn (Zea mays); Preemergence, 500 g ai/ha) | Plant response rating (0 to 100 scale), Morningglory ([6]; Postemergence, 125 g ai/ha) | Plant response rating (0 to 100 scale), Morningglory ([6]; Postemergence, 500 g ai/ha) | Morningglory plant response rating (0 = no effect, 100 = complete control) ([6]; Preemergence, 125 g ai/ha) | Plant response rating (0 to 100 scale), Morningglory ([6]; Preemergence, 500 g ai/ha) | Plant response rating (0 to 100 scale), Crabgrass, Large ([7]; Postemergence, 125 g ai/ha) | Plant response rating (0 to 100 scale), Crabgrass, Large ([7]; Postemergence, 500 g ai/ha) | other results |
| --- | --- | --- | --- | --- | --- | --- | --- | --- | --- | --- | --- | --- | --- | --- | --- | --- | --- | --- | --- | --- | --- |
| CCn1cc(C(=O)c2cccnc2)c(-c2cc(Cl)cc(Cl)c2)n1 [Compound 7] | 0 | 0 | 0 | 0 | 0 | 0 | 0 | 0 | 40 | 70 | 20 | 60 | 0 | 0 | 0 | 0 | 0 | 0 | 0 | 0 | Plant response rating (0 to 100 scale), Corn (corn (Zea mays); Postemergence, 125 g ai/ha): 0; Plant response rating (0 to 100 scale), Corn (corn (Zea mays); Postemergence, 500 g ai/ha): 0; Crabgrass, Large plant response rating (0 = no effect, 100 = complete control) ([7]; Preemergence, 125 g ai/ha): 0; Plant response rating (0 to 100 scale), Crabgrass, Large ([7]; Preemergence, 500 g ai/ha): 0; Plant response rating (0 to 100 scale), Foxtail, Giant ([8]; Postemergence, 125 g ai/ha): 0; Plant response rating (0 to 100 scale), Foxtail, Giant ([8]; Postemergence, 500 g ai/ha): 0; Foxtail, Giant plant response rating (0 = no effect, 100 = complete control) ([8]; Preemergence, 125 g ai/ha): 0; Plant response rating (0 to 100 scale), Foxtail, Giant ([8]; Preemergence, 500 g ai/ha): 0; Plant response rating (0 to 100 scale), Velvetleaf ([9]; Postemergence, 125 g ai/ha): 50; Plant response rating (0 to 100 scale), Velvetleaf ([9]; Postemergence, 500 g ai/ha): 70; Velvetleaf plant response rating (0 = no effect, 100 = complete control) ([9]; Preemergence, 125 g ai/ha): 0; Plant response rating (0 to 100 scale), Velvetleaf ([9]; Preemergence, 500 g ai/ha): 50; Plant response rating (0 to 100 scale), Barnyardgrass ([10]; Postemergence, 125 g ai/ha): 0; Plant response rating (0 to 100 scale), Barnyardgrass ([10]; Postemergence, 500 g ai/ha): 0; Barnyardgrass plant response rating (0 = no effect, 100 = complete control) ([10]; Preemergence, 125 g ai/ha): 0; Plant response rating (0 to 100 scale), Barnyardgrass ([10]; Preemergence, 500 g ai/ha): 0 |
| C=CCn1cc(C(=O)c2cccnc2)c(-c2cc(Cl)cc(Cl)c2)n1 [Compound 8] | 0 | 0 | 0 | 0 | 0 | 0 | 0 | 0 | 30 | 60 | 0 | 50 | 0 | 0 | 0 | 0 | 0 | 0 | 0 | 0 | Plant response rating (0 to 100 scale), Corn (corn (Zea mays); Postemergence, 125 g ai/ha): 0; Plant response rating (0 to 100 scale), Corn (corn (Zea mays); Postemergence, 500 g ai/ha): 0; Crabgrass, Large plant response rating (0 = no effect, 100 = complete control) ([7]; Preemergence, 125 g ai/ha): 0; Plant response rating (0 to 100 scale), Crabgrass, Large ([7]; Preemergence, 500 g ai/ha): 0; Plant response rating (0 to 100 scale), Foxtail, Giant ([8]; Postemergence, 125 g ai/ha): 0; Plant response rating (0 to 100 scale), Foxtail, Giant ([8]; Postemergence, 500 g ai/ha): 0; Foxtail, Giant plant response rating (0 = no effect, 100 = complete control) ([8]; Preemergence, 125 g ai/ha): 0; Plant response rating (0 to 100 scale), Foxtail, Giant ([8]; Preemergence, 500 g ai/ha): 0; Plant response rating (0 to 100 scale), Velvetleaf ([9]; Postemergence, 125 g ai/ha): 10; Plant response rating (0 to 100 scale), Velvetleaf ([9]; Postemergence, 500 g ai/ha): 30; Velvetleaf plant response rating (0 = no effect, 100 = complete control) ([9]; Preemergence, 125 g ai/ha): 0; Plant response rating (0 to 100 scale), Velvetleaf ([9]; Preemergence, 500 g ai/ha): 0; Plant response rating (0 to 100 scale), Barnyardgrass ([10]; Postemergence, 125 g ai/ha): 0; Plant response rating (0 to 100 scale), Barnyardgrass ([10]; Postemergence, 500 g ai/ha): 0; Barnyardgrass plant response rating (0 = no effect, 100 = complete control) ([10]; Preemergence, 125 g ai/ha): 0; Plant response rating (0 to 100 scale), Barnyardgrass ([10]; Preemergence, 500 g ai/ha): 0 |
| C#CCn1cc(C(=O)c2cccnc2)c(-c2cc(Cl)cc(Cl)c2)n1 [Compound 9] | 0 | 0 | 0 | 0 | 0 | 0 | 0 | 0 | 60 | 80 | 60 | 90 | 0 | 0 | 0 | 0 | 0 | 0 | 0 | 0 | Crabgrass, Large plant response rating (0 = no effect, 100 = complete control) ([7]; Preemergence, 125 g ai/ha): 0; Plant response rating (0 to 100 scale), Crabgrass, Large ([7]; Preemergence, 500 g ai/ha): 10; Plant response rating (0 to 100 scale), Foxtail, Giant ([8]; Postemergence, 125 g ai/ha): 0; Plant response rating (0 to 100 scale), Foxtail, Giant ([8]; Postemergence, 500 g ai/ha): 0; Foxtail, Giant plant response rating (0 = no effect, 100 = complete control) ([8]; Preemergence, 125 g ai/ha): 0; Plant response rating (0 to 100 scale), Foxtail, Giant ([8]; Preemergence, 500 g ai/ha): 20; Plant response rating (0 to 100 scale), Velvetleaf ([9]; Postemergence, 125 g ai/ha): 50; Plant response rating (0 to 100 scale), Velvetleaf ([9]; Postemergence, 500 g ai/ha): 60; Velvetleaf plant response rating (0 = no effect, 100 = complete control) ([9]; Preemergence, 125 g ai/ha): 0; Plant response rating (0 to 100 scale), Velvetleaf ([9]; Preemergence, 500 g ai/ha): 80; Plant response rating (0 to 100 scale), Barnyardgrass ([10]; Postemergence, 125 g ai/ha): 0; Plant response rating (0 to 100 scale), Barnyardgrass ([10]; Postemergence, 500 g ai/ha): 10; Barnyardgrass plant response rating (0 = no effect, 100 = complete control) ([10]; Preemergence, 125 g ai/ha): 0; Plant response rating (0 to 100 scale), Barnyardgrass ([10]; Preemergence, 500 g ai/ha): 0 |
